Columns and labels:
[1] = biological target: human activated kallikrein enzyme (Homo sapiens, UniProt P03952); assay: Inhibition of activated plasma kallikrein, fluorogenic peptide substrate (PFR-AMC) assay, 500 pM enzyme format; format: biochemical; conditions: 500 pM activated kallikrein, 300 uM PFR-AMC, 30 min preincubation, 10 min reaction, room temperature; read-out: Primary Dose Response Assay: Average EC50
In short: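 500 pM enzyme preincubated 30 min at room temperature with inhibitor in 20 mM Tris pH 7.5, 150 mM NaCl, 1 mM EDTA, 0.1% PEG-400, 0.1% Triton X-100. Reaction started with 300 uM PFR-AMC and run 10 min at room temperature. Fluorescence read at 380 nm excitation/460 nm emission.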

[2] = biological target: T1, plasma kallikrein (Homo sapiens, UniProt P03952); assay: Neat human plasma assay: contact pathway-activated (FXIIa) plasma, PFR-AMC substrate; format: biochemical; conditions: citrated human plasma (78% final), 10 nM human FXIIa, 100 μM PFR-AMC, room temperature
T1 construct: from tissue; host or cells: sodium citrate collected human plasma (78% final)
In short: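 Compounds spiked into citrated human or rat plasma (78% final), or plasma taken from orally or IV dosed rats, activated with 10 nM human FXIIa; 100 μM PFR-AMC cleavage read at 360/480 nm for 5 min, room temperature. Rates vs concentration fit to 4-parameter IC50/IC90 equation.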

Chain of human activated kallikrein enzyme (P03952 391-638 limits assumed): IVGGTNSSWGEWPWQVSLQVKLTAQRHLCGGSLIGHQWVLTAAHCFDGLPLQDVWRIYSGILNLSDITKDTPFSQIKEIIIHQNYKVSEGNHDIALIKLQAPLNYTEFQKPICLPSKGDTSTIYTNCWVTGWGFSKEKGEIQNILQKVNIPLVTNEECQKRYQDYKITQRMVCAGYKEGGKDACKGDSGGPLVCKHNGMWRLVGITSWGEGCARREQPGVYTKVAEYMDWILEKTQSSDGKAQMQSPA
Chain of human activated kallikrein enzyme (P03952 20-390 partner limits assumed): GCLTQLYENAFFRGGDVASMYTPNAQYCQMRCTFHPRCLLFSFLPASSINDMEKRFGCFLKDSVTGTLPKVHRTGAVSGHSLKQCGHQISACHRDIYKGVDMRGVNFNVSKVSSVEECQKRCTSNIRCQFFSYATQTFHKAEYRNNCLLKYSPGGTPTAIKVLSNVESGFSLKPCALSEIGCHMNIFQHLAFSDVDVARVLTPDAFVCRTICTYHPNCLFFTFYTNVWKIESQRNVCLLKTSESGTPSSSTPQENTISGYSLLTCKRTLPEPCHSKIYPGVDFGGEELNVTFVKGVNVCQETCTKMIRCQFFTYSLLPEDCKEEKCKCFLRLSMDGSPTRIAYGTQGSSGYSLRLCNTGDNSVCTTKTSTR
T1 sequence (P03952 391-638 limits assumed): as the sequence (P03952 391-638 limits assumed) above
T1 sequence (P03952 20-390 partner limits assumed): as the sequence (P03952 20-390 partner limits assumed) above

Compound | EC50 [1] [nM] | IC90 [2] [nM]
CN1C(=O)CN(c2cc(C3CC3)cn3cc(CNc4ccc5c(=O)[nH]c([C@H]6C[C@@H]6c6cccc(Cl)c6)nc5c4)nc23)C1=O [Example 6, 1-(2-(((2-((1S,2S)-2-(3-chlorophenyl)cyclopropyl)-4-oxo-3,4-dihydroquinazolin-7-yl)amino)methyl)-6-cyclopropylimidazo[1,2-a]pyridin-8-yl)-3-methylimidazolidine-2,4-dione] | 1 to 10 | 1500 to 10000
Cc1ccnc([C@H]2C[C@@H]2c2cc(N3CCN(C)CC3)c3ccc(NCc4cn5cc(C6CC6)cc(N6CC(=O)N(C)C6=O)c5n4)cc3n2)n1 [Example 39, 1-(6-cyclopropyl-2-(((4-(4-methylpiperazin-1-yl)-2-((1S,2S)-2-(4-methylpyrimidin-2-yl)cyclopropyl)quinolin-7-yl)amino)methyl)imidazo[1,2-a]pyridin-8-yl)-3-methylimidazolidine-2,4-dione] | ≤ 1 | ≤ 400
Cc1ccnc([C@H]2C[C@@H]2c2cc(N3CC4(COC4)C3)c3ccc(OCc4cn5cc(C6CC6)cc(N6CC(=O)N(C)C6=O)c5n4)cc3n2)n1 [Example 43, 1-[6-cyclopropyl-2-[[2-[(1S,2S)-2-(4-methylpyrimidin-2-yl)cyclopropyl]-4-(2-oxa-6-azaspiro[3.3]heptan-6-yl)-7-quinolyl]oxymethyl]imidazo[1,2-a]pyridin-8-yl]-3-methyl-imidazolidine-2,4-dione] | ≤ 1 | ≤ 400
Oc1cc([C@H]2C[C@@H]2c2cccc(Cl)c2)nc2cc(NCc3cn4cc(C5CC5)ccc4n3)ccc12 [Example 51, 2-((1S,2S)-2-(3-chlorophenyl)cyclopropyl)-7-(((6-cyclopropylimidazo[1,2-a]pyridin-2-yl)methyl)amino)quinolin-4-ol] | 1 to 10 | 1500 to 10000
Cc1ccnc([C@H]2C[C@@H]2C2=NS(=O)(=O)c3ccc(NC(C)c4cn5cc(C6CC6)ccc5n4)cc3N2)n1 (stereo partly drawn) [Example 87, 6-((1-(6-cyclopropylimidazo[1,2-a]pyridin-2-yl)ethyl)amino)-3-((1S,2S)-2-(4-methylpyrimidin-2-yl)cyclopropyl)-4H-benzo[e][1,2,4]thiadiazine 1,1-dioxide] | ≤ 1 | 400 to 1500
Cc1ccnc([C@H]2C[C@@H]2C2=NS(=O)(=O)c3ccc(OCc4cn5cc(C6CC6)ccc5n4)cc3N2)n1 [Example 91, 6-((6-cyclopropylimidazo[1,2-a]pyridin-2-yl)methoxy)-3-((1S,2S)-2-(4-methylpyrimidin-2-yl)cyclopropyl)-4H-benzo[e][1,2,4]thiadiazine 1,1-dioxide] | ≤ 1 | 1500 to 10000
Cc1ccnc([C@H]2C[C@@H]2C2=NS(=O)(=O)c3cc4c(cc3N2)N(Cc2cn3cc(C5CC5)ccc3n2)CCO4)n1 [Example 93, 6-((6-cyclopropylimidazo[1,2-a]pyridin-2-yl)methyl)-3-((1S,2S)-2-(4-methylpyrimidin-2-yl)cyclopropyl)-7,8-dihydro-4H,6H-[1,4]oxazino[2′,3′:4,5]benzo[1,2-e][1,2,4]thiadiazine 1,1-dioxide] | ≤ 1 | 1500 to 10000
Cc1cc(N2CC(=O)N(C)C2=O)c2nc(COc3ccc4c(N5CC6(COC6)C5)cc([C@H]5C[C@@H]5c5nccc(C)n5)nc4c3)cn2c1 [Example 96, 3-methyl-1-(6-methyl-2-(((2-((1S,2S)-2-(4-methylpyrimidin-2-yl)cyclopropyl)-4-(2-oxa-6-azaspiro[3.3]heptan-6-yl)quinolin-7-yl)oxy)methyl)imidazo[1,2-a]pyridin-8-yl)imidazolidine-2,4-dione] | ≤ 1 | ≤ 400
Cc1ccnc([C@H]2C[C@@H]2c2cc(NCC(C)(C)O)c3ccc(OCc4cn5cc(C6CC6)cc(N6CC(=O)N(C)C6=O)c5n4)cc3n2)n1 [Example 97, 1-(6-cyclopropyl-2-(((4-((2-hydroxy-2-methylpropyl)amino)-2-((1S,2S)-2-(4-methylpyrimidin-2-yl)cyclopropyl)quinolin-7-yl)oxy)methyl)imidazo[1,2-a]pyridin-8-yl)-3-methylimidazolidine-2,4-dione] | ≤ 1 | ≤ 400
Cc1ccnc([C@H]2C[C@@H]2c2cc(N3CC4(COC4)C3)c3ccc(N(C)Cc4cn5cc(C6CC6)cc(N6CC(=O)N(C)C6=O)c5n4)cc3n2)n1 [Example 98, 1-(6-cyclopropyl-2-((methyl(2-((1S,2S)-2-(4-methylpyrimidin-2-yl)cyclopropyl)-4-(2-oxa-6-azaspiro[3.3]heptan-6-yl)quinolin-7-yl)amino)methyl)imidazo[1,2-a]pyridin-8-yl)-3-methylimidazolidine-2,4-dione] | ≤ 1 | ≤ 400
Cc1ccnc([C@H]2C[C@@H]2c2cc(N3CC4(COC4)C3)c3ccc(NC(C)c4cn5cc(C6CC6)cc(N6CC(=O)N(C)C6=O)c5n4)cc3n2)n1 (stereo partly drawn) [Example 99, 1-(6-cyclopropyl-2-(1-((2-((1S,2S)-2-(4-methylpyrimidin-2-yl)cyclopropyl)-4-(2-oxa-6-azaspiro[3.3]heptan-6-yl)quinolin-7-yl)amino)ethyl)imidazo[1,2-a]pyridin-8-yl)-3-methylimidazolidine-2,4-dione] | 1 to 10 | 400 to 1500
Cc1ccnc([C@H]2C[C@@H]2c2cc(N(C)CC(C)(C)O)c3ccc(NCc4cn5cc(C6CC6)cc(N6CC(=O)N(C)C6=O)c5n4)cc3n2)n1 [Example 100, 1-(6-cyclopropyl-2-(((4-((2-hydroxy-2-methylpropyl)(methyl)amino)-2-((1S,2S)-2-(4-methylpyrimidin-2-yl)cyclopropyl)quinolin-7-yl)amino)methyl)imidazo[1,2-a]pyridin-8-yl)-3-methylimidazolidine-2,4-dione] | ≤ 1 | ≤ 400

More lines, now with the values ahead:

EC50 [1] [nM] | IC90 [2] [nM] | Compound
≤ 1 | 400 to 1500 | Cc1ccnc([C@H]2C[C@@H]2C2=NS(=O)(=O)c3ccc(NCc4cn5cc(C6CC6)ccc5n4)cc3N2)n1 (single isomer, unassigned) [Example 65]
≤ 1 | 400 to 1500 | Cc1ccnc([C@H]2C[C@@H]2c2cc(-c3cnn(C)c3)c3ccc(NCc4cn5cc(C6CC6)cc(N6CC(=O)N(C)C6=O)c5n4)cc3n2)n1 [Example 27, 1-(6-cyclopropyl-2-(((4-(1-methyl-1H-pyrazol-4-yl)-2-((1S,2S)-2-(4-methylpyrimidin-2-yl)cyclopropyl)quinolin-7-yl)amino)methyl)imidazo[1,2-a]pyridin-8-yl)-3-methylimidazolidine-2,4-dione]
≤ 1 | 400 to 1500 | COc1cc(NCc2cn3cc(C4CC4)cc(N4CC(=O)N(C)C4=O)c3n2)cc2nc([C@H]3C[C@@H]3c3nccc(C)n3)ccc12 [Example 28, 1-(6-cyclopropyl-2-(((5-methoxy-2-((1S,2S)-2-(4-methylpyrimidin-2-yl)cyclopropyl)quinolin-7-yl)amino)methyl)imidazo[1,2-a]pyridin-8-yl)-3-methylimidazolidine-2,4-dione]
≤ 1 | ≤ 400 | Cc1ccnc([C@H]2C[C@@H]2c2cc(N3CCC3)c3ccc(NCc4cn5cc(C6CC6)cc(N6CC(=O)N(C)C6=O)c5n4)cc3n2)n1 [Example 30, 1-(2-(((4-(azetidin-1-yl)-2-((1S,2S)-2-(4-methylpyrimidin-2-yl)cyclopropyl)quinolin-7-yl)amino)methyl)-6-cyclopropylimidazo[1,2-a]pyridin-8-yl)-3-methylimidazolidine-2,4-dione]
≤ 1 | ≤ 400 | Cc1ccnc([C@H]2C[C@@H]2c2cc(N3CC(O)C3)c3ccc(NCc4cn5cc(C6CC6)cc(N6CC(=O)N(C)C6=O)c5n4)cc3n2)n1 [Example 31, 1-(6-cyclopropyl-2-(((4-(3-hydroxyazetidin-1-yl)-2-((1S,2S)-2-(4-methylpyrimidin-2-yl)cyclopropyl)quinolin-7-yl)amino)methyl)imidazo[1,2-a]pyridin-8-yl)-3-methylimidazolidine-2,4-dione]
≤ 1 | ≤ 400 | Cc1ccnc([C@H]2C[C@@H]2c2cc(N3CC4(COC4)C3)c3ccc(NCc4cn5cc(C6CC6)cc(N6CC(=O)N(C)C6=O)c5n4)cc3n2)n1 [Example 36, 1-(6-cyclopropyl-2-(((2-((1S,2S)-2-(4-methylpyrimidin-2-yl)cyclopropyl)-4-(2-oxa-6-azaspiro[3.3]heptan-6-yl)quinolin-7-yl)amino)methyl)imidazo[1,2-a]pyridin-8-yl)-3-methylimidazolidine-2,4-dione]
≤ 1 | ≤ 400 | Cc1ccnc([C@H]2C[C@@H]2c2cc(N3CCS(=O)(=O)CC3)c3ccc(NCc4cn5cc(C6CC6)cc(N6CC(=O)N(C)C6=O)c5n4)cc3n2)n1 [Example 37, 1-(6-cyclopropyl-2-(((4-(1,1-dioxidothiomorpholino)-2-((1S,2S)-2-(4-methylpyrimidin-2-yl)cyclopropyl)quinolin-7-yl)amino)methyl)imidazo[1,2-a]pyridin-8-yl)-3-methylimidazolidine-2,4-dione]
≤ 1 | ≤ 400 | Cc1ccnc([C@H]2C[C@@H]2c2cc(NCC(C)(C)O)c3ccc(NCc4cn5cc(C6CC6)cc(N6CC(=O)N(C)C6=O)c5n4)cc3n2)n1 [Example 38, 1-(6-cyclopropyl-2-(((4-((2-hydroxy-2-methylpropyl)amino)-2-((1S,2S)-2-(4-methylpyrimidin-2-yl)cyclopropyl)quinolin-7-yl)amino)methyl)imidazo[1,2-a]pyridin-8-yl)-3-methylimidazolidine-2,4-dione]
